Laboratory results as given in ChEMBL document CHEMBL3864191 (ACS Med Chem Lett, 2016).

Legend:
[1] = Cytotoxicity against human breast cancer cells assessed as cell growth inhibition after 48 hrs by SRB assay; assay type: functional; conditions: Cancer cell lines
MCF7 = assay: Potency index, ratio of (-)-gossypol IC50 to compound IC50 for human MCF7 cells; assay type: functional
[2] = Chemical stability of compound in pH 1 to 10 Hcl solution after 3 hrs by HPLC analysis; assay type: physicochemical; conditions: buffer, pH 1, 3 h
[3] = Cytotoxicity against human NCI60 cells assessed as cell growth inhibition after 48 hrs by SRB assay; assay type: functional; conditions: NCI60, 48 h
cells [4] = conditions: Homo sapiens, HCT-116, 72 h
Description: Cytotoxicity against human HCT116 cells assessed as reduction in cell viability after 72 hrs by MTT assay

[5] = Cytotoxicity against human prostate cancer cells assessed as cell growth inhibition after 48 hrs by SRB assay; assay type: functional; conditions: Cancer cell lines
[6] = Cytotoxicity against human DU145 cells assessed as reduction in cell viability after 72 hrs by MTT assay; assay type: functional, cell-based, DU-145; conditions: Homo sapiens, DU-145, 72 h
[7] = Cytotoxicity against African green monkey Vero cells assessed as reduction in cell viability at 0.33 to 100 uM after 72 hrs by MTT assay; assay type: toxicity, cell-based; conditions: chlorocebus sabaeus
[8] = Cytotoxicity against mouse CT26 cells assessed as reduction in cell viability after 72 hrs by MTT assay; assay type: functional, cell-based; conditions: Mus musculus, CT26, 72 h
[9] = Cytotoxicity against human ovarian cancer cells assessed as cell growth inhibition after 48 hrs by SRB assay; assay type: functional; conditions: Cancer cell lines
[10] = Cytotoxicity against human colon cancer cells assessed as cell growth inhibition after 48 hrs by SRB assay; assay type: functional; conditions: Cancer cell lines
[11] = Cytotoxicity against human CNS cancer cells assessed as cell growth inhibition after 48 hrs by SRB assay; assay type: functional; conditions: Cancer cell lines
[12] = target: Induced myeloid leukemia cell differentiation protein Mcl-1 (Homo sapiens, UniProt Q07820); assay: Inhibition of FAM-Bid binding to human MCL1 expressed in Escherichia coli BL21 after 30 mins by fluorescence polarization assay
[13] = Stability in human liver microsomes at 4.75 uM preincubated for 5 mins followed by NADPH addition after 60 mins by HPLC analysis; assay type: ADME; conditions: 1 h
[14] = Cytotoxicity against human renal cancer cells assessed as cell growth inhibition after 48 hrs by SRB assay; assay type: functional; conditions: Cancer cell lines
[15] = Cytotoxicity against human leukemia cells assessed as cell growth inhibition after 48 hrs by SRB assay; assay type: functional
[16] = Cytotoxicity against human melanoma cells assessed as cell growth inhibition after 48 hrs by SRB assay; assay type: functional
[17] = Stability in rat liver microsomes at 4.75 uM preincubated for 5 mins followed by NADPH addition after 60 mins by HPLC analysis; assay type: ADME; conditions: 1 h
cells [18] = conditions: Homo sapiens, MCF7, 72 h
Description: Cytotoxicity against human MCF7 cells assessed as reduction in cell viability after 72 hrs by MTT assay

[19] = Cytotoxicity against HEK293T cells assessed as reduction in cell viability at 0.33 to 100 uM after 72 hrs by MTT assay; assay type: toxicity, cell-based; conditions: human, hek-293t
[20] = target: Apoptosis regulator Bcl-2 (Homo sapiens, UniProt P10415); assay: Inhibition of FAM-Bid binding to human BCL2 expressed in Escherichia coli BL21 after 30 mins by fluorescence polarization assay
[21] = Cytotoxicity against human non-small cell lung cancer cells assessed as cell growth inhibition after 48 hrs by SRB assay; assay type: functional; conditions: Cancer cell lines

Chain of Apoptosis regulator Bcl-2 (P10415 whole entry): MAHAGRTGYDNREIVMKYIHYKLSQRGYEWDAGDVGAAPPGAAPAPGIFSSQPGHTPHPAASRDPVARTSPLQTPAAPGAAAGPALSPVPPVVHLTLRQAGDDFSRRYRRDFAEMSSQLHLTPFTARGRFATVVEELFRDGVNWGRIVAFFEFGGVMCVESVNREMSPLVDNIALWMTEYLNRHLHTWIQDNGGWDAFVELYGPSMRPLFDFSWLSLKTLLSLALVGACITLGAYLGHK
Chain of Induced myeloid leukemia cell differentiation protein Mcl-1 (Q07820 whole entry): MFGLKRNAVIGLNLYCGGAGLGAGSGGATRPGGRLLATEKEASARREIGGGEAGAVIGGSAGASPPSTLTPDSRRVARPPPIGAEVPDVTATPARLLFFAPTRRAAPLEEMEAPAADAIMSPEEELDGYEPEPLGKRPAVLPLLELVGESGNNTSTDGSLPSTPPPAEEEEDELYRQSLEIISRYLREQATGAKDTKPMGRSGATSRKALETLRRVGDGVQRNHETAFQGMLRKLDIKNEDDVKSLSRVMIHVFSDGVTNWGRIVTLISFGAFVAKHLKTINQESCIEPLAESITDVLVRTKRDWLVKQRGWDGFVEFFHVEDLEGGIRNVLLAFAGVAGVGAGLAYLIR

For `COC(=O)CCCN/C=C1\C(=O)C(O)=C(C(C)C)c2cc(C)c(-c3c(C)cc4c(c3O)/C(=C/NCCCC(=O)OC)C(=O)C(O)=C4C(C)C)c(O)c21` (stereo in doubt; 16), which GI50 [1] is on record?
The GI50 was 740 nM.

And the “Ratio IC50” value (MCF7)?
The value was 12.

What about the Stability [2] of the same compound?
Its Stability is “Stable”.

What about the GI50 [3] of the same compound?
Its GI50 is 100 to 1700 nM.

And the IC50 (cells [4])?
The IC50 was 2750 nM.

What about the GI50 [5] of the same compound?
Its GI50 is 410 nM.

What about the IC50 [6] of the same compound?
Its IC50 is 2390 nM.

And the Activity [7]?
Its Activity is “Non-Toxic”.

What about the IC50 [8] of the same compound?
The IC50 was 8390 nM.

What about the GI50 [9] of the same compound?
Its GI50 is 590 nM.

And the GI50 [10]?
Its GI50 is 460 nM.

What about the GI50 [11] of the same compound?
The GI50 was 600 nM.

What about the IC50 [12] of the same compound?
The IC50 was 947 nM.

And the Ki [12]?
The Ki was 180 nM.

And the Stability [13]?
Its Stability is “Stable”.

And the GI50 [14]?
Its GI50 is 820 nM.

What about the GI50 [15] of the same compound?
Its GI50 is 560 nM.

What about the GI50 [16] of the same compound?
Its GI50 is 990 nM.

What about the Stability [17] of the same compound?
Its Stability is “Stable”.

And the IC50 (cells [18])?
Its IC50 is 4390 nM.

What about the Activity [19] of the same compound?
The Activity was “Non-Toxic”.

What about the IC50 [20] of the same compound?
The IC50 was 825 nM.

And the Ki [20]?
Its Ki is 341 nM.

And the GI50 [21]?
The GI50 was 480 nM.
